Experiment [1] concerns the target T1, Thromboxane A2 receptor (Homo sapiens) (UniProt P21731).
T1 sequence (whole entry): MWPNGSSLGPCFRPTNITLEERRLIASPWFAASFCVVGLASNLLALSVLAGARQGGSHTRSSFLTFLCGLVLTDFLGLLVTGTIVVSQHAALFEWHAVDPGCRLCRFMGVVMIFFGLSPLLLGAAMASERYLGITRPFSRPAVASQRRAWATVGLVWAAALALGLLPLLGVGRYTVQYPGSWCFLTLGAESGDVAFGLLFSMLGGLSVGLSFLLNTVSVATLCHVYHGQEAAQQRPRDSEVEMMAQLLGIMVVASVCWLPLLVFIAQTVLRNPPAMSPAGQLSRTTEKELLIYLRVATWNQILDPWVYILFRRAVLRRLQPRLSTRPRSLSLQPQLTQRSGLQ
In words: Displacement of [3H]SQ-29548 from TPbeta receptor (long isoform) expressed in COS7 cells at 1 nM. Particulars: COS-7. (In general: Displacement assays read how much labelled ligand stays bound in the presence of the test substance.)

Experiment [2] addresses T1, Thromboxane A2 receptor (Homo sapiens). Put plainly: Displacement of [3H]SQ29,548 from TPalpha receptor (short isoform) expressed in COS7 cells at 1 nM. Particulars: COS-7.

For the compound `Cc1ccc(Nc2ccc([N+](=O)[O-])cc2S(=O)(=O)NC(=O)NC2CCCCC2)cc1`, the Activity in experiment [1] turned out to be 29%; in experiment [2], 31.1%.
In the same order, the values of `CCCCCNC(=O)NS(=O)(=O)c1cc([N+](=O)[O-])ccc1Sc1ccccc1C` are 32.7% and 33.4%.
The like results for `CCCCCNC(=O)NS(=O)(=O)c1cc([N+](=O)[O-])ccc1Nc1cccc(C)c1C` were, in that order, 39% and 44.6%.
As for `CCCCCNC(=O)NS(=O)(=O)c1cc([N+](=O)[O-])ccc1Nc1ccc(C)c(C)c1`, the Activity in experiment [1] stood at 48.7%; in experiment [2], 40.1%.
Consider `CCCCCCCCNC(=O)NS(=O)(=O)c1cc([N+](=O)[O-])ccc1NC1CCCCC1`, for which the Activity in experiment [1] is 24.1%; in experiment [2] it was 17.1%.
The like results for `CC(C)(C)NC(=O)NS(=O)(=O)c1cc([N+](=O)[O-])ccc1Sc1ccc(Cl)cc1` were, in that order, 31.7% and 32.5%.
On to `CCCCCNC(=O)NS(=O)(=O)c1cc([N+](=O)[O-])ccc1Oc1ccccc1C`, for which the Activity was determined as 36.8% in experiment [1] and 35.2% in experiment [2].
`CCCCCNC(=O)NS(=O)(=O)c1cc([N+](=O)[O-])ccc1Nc1cc(C)ccc1C`: the Activity was determined as 33.1% in experiment [1] and 28.6% in experiment [2].
On to `CCCCCNC(=O)NS(=O)(=O)c1cc([N+](=O)[O-])ccc1Sc1ccc(Cl)cc1`, for which the Activity came to 21.3% in experiment [1] and 24.7% in experiment [2].
The like results for `CCCCCNC(=O)NS(=O)(=O)c1cc([N+](=O)[O-])ccc1Oc1cccc(C)c1` were, in that order, 22.8% and 20.1%.
Consider `CCCCCNC(=O)NS(=O)(=O)c1cc([N+](=O)[O-])ccc1Nc1c(C)cc(C)cc1C`, for which the Activity is 27.5% in experiment [1] and 27.9% in experiment [2].
On to `CCCCCNC(=O)NS(=O)(=O)c1cc([N+](=O)[O-])ccc1Nc1ccccc1C`, for which the Activity in experiment [1] and in experiment [2] was 45.3% throughout.
In the case of `Cc1cc(Nc2ccc([N+](=O)[O-])cc2S(=O)(=O)NC(=O)NC(C)(C)C)ccc1Br`, the Activity is 25% in experiment [1] and 28.5% in experiment [2].
In the same order, the values of `CCCCCNC(=O)NS(=O)(=O)c1cc([N+](=O)[O-])ccc1Sc1ccc(C)cc1` are 43% and 38.5%.
With `CCCCC/N=C(\NC#N)NS(=O)(=O)c1cc([N+](=O)[O-])ccc1Nc1ccc(C)cc1`, the results for the Activity in experiment [1] and in experiment [2] were 27.2% and 25.5%, respectively.
In the same order, the values of `CCCCCNC(=O)NS(=O)(=O)c1cc([N+](=O)[O-])ccc1Nc1ccc(C)cc1C` are 39.9% and 42.3%.
In the same order, the values of `CCCCCNC(=O)NS(=O)(=O)c1cc([N+](=O)[O-])ccc1Nc1ccc(Cl)cc1` are 52.7% and 48.9%.
In the same order, the values of `CCCCC/N=C(\NC#N)NS(=O)(=O)c1cc([N+](=O)[O-])ccc1Nc1cc(C)cc(C)c1` are 53.4% and 48%.
